# PMC5578959, “Selective LRRK2 kinase inhibition reduces phosphorylation of endogenous Rab10 and Rab12 in human peripheral mononuclear blood cells” (Scientific Reports, 2017)
# Key:
# Test in all cases: KiNativ profiling in human PBMCs
# Assay type in all cases: binding
# ACK = system: T1, ACK; settings: Lys1
# T1 construct: purchased ActivX Technologies (KiNativ)
# In short: (§1)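 Compound was applied to living PBMCs at 0.1 µM or 1 µM. Occupancy of kinases was then assessed by KiNativ.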
# AKT1 = system: T2, AKT1; settings: ATP Loop
# T2 construct: purchased ActivX Technologies (KiNativ)
# In short: as §1
# ARAF = system: T3, ARAF; settings: Lys2
# T3 construct: purchased ActivX Technologies (KiNativ)
# In short: as §1
# BRAF = system: T4, BRAF; settings: Lys2
# T4 construct: purchased ActivX Technologies (KiNativ)
# In short: as §1
# CDK2 = system: T5, CDK2
# T5 construct: purchased ActivX Technologies (KiNativ)
# In short: as §1
# CDK5 = system: T6, CDK5
# T6 construct: purchased ActivX Technologies (KiNativ)
# In short: as §1
# CK1g2 = system: T7, CK1g2; settings: Lys2
# T7 construct: purchased ActivX Technologies (KiNativ)
# In short: as §1
# CaMK2g = system: T8, CaMK2g; settings: Lys1
# T8 construct: purchased ActivX Technologies (KiNativ)
# In short: as §1
# Erk1 = system: T9, Erk1; settings: Lys2
# T9 construct: purchased ActivX Technologies (KiNativ)
# In short: as §1
# FER = system: T10, FER
# T10 construct: purchased ActivX Technologies (KiNativ)
# In short: as §1
# HPK1 = system: T11, HPK1
# T11 construct: purchased ActivX Technologies (KiNativ)
# In short: as §1
# IKKb = system: T12, IKKb
# T12 construct: purchased ActivX Technologies (KiNativ)
# In short: as §1
# ILK = system: T13, ILK
# T13 construct: purchased ActivX Technologies (KiNativ)
# In short: as §1
# KSR1,KSR2 = settings: Activation Loop
# In short: as §1
# LATS2 = system: T14, LATS2
# T14 construct: purchased ActivX Technologies (KiNativ)
# In short: as §1
# LYN = system: T15, LYN
# T15 construct: purchased ActivX Technologies (KiNativ)
# In short: as §1
# MAP2K3 = system: T16, MAP2K3
# T16 construct: purchased ActivX Technologies (KiNativ)
# In short: as §1
# MAP2K5 = system: T17, MAP2K5
# T17 construct: purchased ActivX Technologies (KiNativ)
# In short: as §1
# MAP2K6 = system: T18, MAP2K6
# T18 construct: purchased ActivX Technologies (KiNativ)
# In short: as §1
# MAP2K7 = system: T19, MAP2K7; settings: Lys2
# T19 construct: purchased ActivX Technologies (KiNativ)
# In short: as §1
# MAP3K15,MAP3K5,MAP3K6 = settings: Lys1
# In short: as §1
# MARK1,MARK2 = settings: Lys1
# In short: as §1
# MARK2 = system: T20, MARK2; settings: Lys1
# T20 construct: purchased ActivX Technologies (KiNativ)
# In short: as §1
# MARK3 = system: T21, MARK3; settings: Lys1
# T21 construct: purchased ActivX Technologies (KiNativ)
# In short: as §1
# NDR1 = system: T22, NDR1
# T22 construct: purchased ActivX Technologies (KiNativ)
# In short: as §1
# NuaK2 = system: T23, NuaK2; settings: Lys1
# T23 construct: purchased ActivX Technologies (KiNativ)
# In short: as §1
# PIK3CD = system: T24, PIK3CD; settings: ATP
# T24 construct: purchased ActivX Technologies (KiNativ)
# In short: as §1
# PITSLRE = system: T25, PITSLRE; settings: Lys2
# T25 construct: purchased ActivX Technologies (KiNativ)
# In short: as §1
# PRP4 = system: T26, PRP4
# T26 construct: purchased ActivX Technologies (KiNativ)
# In short: as §1
# RIPK3 = system: T27, RIPK3; settings: Lys2
# T27 construct: purchased ActivX Technologies (KiNativ)
# In short: as §1
# RSKL1 domain1 = system: T28, RSKL1 domain1; settings: ATP
# T28 construct: RSKL1 domain1; purchased ActivX Technologies (KiNativ)
# In short: as §1
# SNRK = system: T29, SNRK
# T29 construct: purchased ActivX Technologies (KiNativ)
# In short: as §1
# YANK3 = system: T30, YANK3; settings: Lys2
# T30 construct: purchased ActivX Technologies (KiNativ)
# In short: as §1
# p38a = system: T31, p38a
# T31 construct: purchased ActivX Technologies (KiNativ)
# In short: as §1
# smMLCK = system: T32, smMLCK
# T32 construct: purchased ActivX Technologies (KiNativ)
# In short: as §1
smiles,measurement,setting,value
Cn1cc(-c2c[nH]c3ncnc(N4CCOCC4)c23)cc1C#N [PFE-360],% Inhibition,ACK; 0.1µM,-5.6%
same,% Inhibition,ACK; 1µM,-0.5%
same,% Inhibition,AKT1; 0.1µM,-6.3%
same,% Inhibition,AKT1; 1µM,-3.2%
same,% Inhibition,ARAF; 0.1µM,7.6%
same,% Inhibition,ARAF; 1µM,2.5%
same,% Inhibition,BRAF; 0.1µM,-13.9%
same,% Inhibition,BRAF; 1µM,-14.3%
same,% Inhibition,"CDK2; 0.1µM, Lys1",-5.8%
same,% Inhibition,"CDK2; 0.1µM, Lys2",4.2%
same,% Inhibition,"CDK2; 1µM, Lys1",-5.5%
same,% Inhibition,"CDK2; 1µM, Lys2",-2.9%
same,% Inhibition,"CDK5; 0.1µM, Lys1",-2.7%
same,% Inhibition,"CDK5; 0.1µM, Lys2",3.9%
same,% Inhibition,"CDK5; 1µM, Lys1",-6.7%
same,% Inhibition,"CDK5; 1µM, Lys2",-7.1%
same,% Inhibition,CK1g2; 0.1µM,-2%
same,% Inhibition,CK1g2; 1µM,-13.3%
same,% Inhibition,CaMK2g; 0.1µM,11.1%
same,% Inhibition,CaMK2g; 1µM,9.2%
same,% Inhibition,Erk1; 0.1µM,7.7%
same,% Inhibition,Erk1; 1µM,3.7%
same,% Inhibition,"FER; 0.1µM, Activation Loop",10%
same,% Inhibition,"FER; 0.1µM, Lys1",-2%
same,% Inhibition,"FER; 1µM, Activation Loop",4.9%
same,% Inhibition,"FER; 1µM, Lys1",-3.4%
same,% Inhibition,"HPK1; 0.1µM, Lys1",-22.3%
same,% Inhibition,"HPK1; 0.1µM, Lys2",1.2%
same,% Inhibition,"HPK1; 1µM, Lys1",7.8%
same,% Inhibition,"HPK1; 1µM, Lys2",0%
same,% Inhibition,"IKKb; 0.1µM, Lys1",-5%
same,% Inhibition,"IKKb; 0.1µM, Lys2",-6%
same,% Inhibition,"IKKb; 1µM, Lys1",-10.5%
same,% Inhibition,"IKKb; 1µM, Lys2",-31.2%
same,% Inhibition,"ILK; 0.1µM, Lys1",4.8%
same,% Inhibition,"ILK; 0.1µM, Protein Kinase Domain",-4%
same,% Inhibition,"ILK; 1µM, Lys1",6.2%
same,% Inhibition,"ILK; 1µM, Protein Kinase Domain",26%
same,% Inhibition,"KSR1,KSR2; 0.1µM",19.7%
same,% Inhibition,"KSR1,KSR2; 1µM",10.8%
same,% Inhibition,"LATS2; 0.1µM, Lys1",-10.2%
same,% Inhibition,"LATS2; 0.1µM, Lys2",5.5%
same,% Inhibition,"LATS2; 1µM, Lys1",16.6%
same,% Inhibition,"LATS2; 1µM, Lys2",-0.4%
same,% Inhibition,"LYN; 0.1µM, Activation Loop",7.3%
same,% Inhibition,"LYN; 0.1µM, Lys1",-30.4%
same,% Inhibition,"LYN; 1µM, Activation Loop",7.8%
same,% Inhibition,"LYN; 1µM, Lys1",7.4%
same,% Inhibition,"MAP2K3; 0.1µM, Lys1",-7.9%
same,% Inhibition,"MAP2K3; 0.1µM, Lys2",9.4%
same,% Inhibition,"MAP2K3; 1µM, Lys1",11.1%
same,% Inhibition,"MAP2K3; 1µM, Lys2",-11.7%
same,% Inhibition,"MAP2K5; 0.1µM, Lys1",4.7%
same,% Inhibition,"MAP2K5; 0.1µM, Lys2",-4.6%
same,% Inhibition,"MAP2K5; 1µM, Lys1",-10.3%
same,% Inhibition,"MAP2K5; 1µM, Lys2",31.9%
same,% Inhibition,"MAP2K6; 0.1µM, Lys1",-18%
same,% Inhibition,"MAP2K6; 0.1µM, Lys2",14.6%
same,% Inhibition,"MAP2K6; 1µM, Lys1",1.8%
same,% Inhibition,"MAP2K6; 1µM, Lys2",6.2%
same,% Inhibition,MAP2K7; 0.1µM,7.5%
same,% Inhibition,MAP2K7; 1µM,-1.1%
same,% Inhibition,"MAP3K15,MAP3K5,MAP3K6; 0.1µM",26.2%
same,% Inhibition,"MAP3K15,MAP3K5,MAP3K6; 1µM",53.5%
same,% Inhibition,"MARK1,MARK2; 0.1µM",6.2%
same,% Inhibition,"MARK1,MARK2; 1µM",3.2%
same,% Inhibition,MARK2; 0.1µM,-8.9%
same,% Inhibition,MARK2; 1µM,2.3%
same,% Inhibition,MARK3; 0.1µM,4.8%
same,% Inhibition,MARK3; 1µM,4.7%
same,% Inhibition,"NDR1; 0.1µM, Lys1",-16.4%
same,% Inhibition,"NDR1; 0.1µM, Lys2",5.8%
same,% Inhibition,"NDR1; 1µM, Lys1",-6%
same,% Inhibition,"NDR1; 1µM, Lys2",1.6%
same,% Inhibition,NuaK2; 0.1µM,14.4%
same,% Inhibition,NuaK2; 1µM,4.6%
same,% Inhibition,"PIK3CD; 0.1µM, peptide TKVNWLAHNVSKDNRQ",-9.3%
same,% Inhibition,"PIK3CD; 0.1µM, peptide VNWLAHNVSKDNRQ",0.5%
same,% Inhibition,"PIK3CD; 1µM, peptide TKVNWLAHNVSKDNRQ",-11.6%
same,% Inhibition,"PIK3CD; 1µM, peptide VNWLAHNVSKDNRQ",1.4%
same,% Inhibition,PITSLRE; 0.1µM,-3.8%
same,% Inhibition,PITSLRE; 1µM,-18.7%
same,% Inhibition,"PRP4; 0.1µM, Lys2",-12.1%
same,% Inhibition,"PRP4; 0.1µM, Protein Kinase Domain",-9.2%
same,% Inhibition,"PRP4; 1µM, Lys2",-13.6%
same,% Inhibition,"PRP4; 1µM, Protein Kinase Domain",-18%
same,% Inhibition,RIPK3; 0.1µM,16.1%
same,% Inhibition,RIPK3; 1µM,27.3%
same,% Inhibition,RSKL1 domain1; 0.1µM,-38%
same,% Inhibition,RSKL1 domain1; 1µM,7.3%
same,% Inhibition,"SNRK; 0.1µM, Lys1",17.1%
same,% Inhibition,"SNRK; 0.1µM, Lys2",-21.9%
same,% Inhibition,"SNRK; 1µM, Lys1",-2%
same,% Inhibition,"SNRK; 1µM, Lys2",-18.7%
same,% Inhibition,YANK3; 0.1µM,8.2%
same,% Inhibition,YANK3; 1µM,13.5%
same,% Inhibition,"p38a; 0.1µM, Lys2",7.1%
same,% Inhibition,"p38a; 0.1µM, Protein Kinase Domain",7.5%
same,% Inhibition,"p38a; 1µM, Lys2",-2.9%
same,% Inhibition,"p38a; 1µM, Protein Kinase Domain",1%
same,% Inhibition,"smMLCK; 0.1µM, Lys1",1.5%
same,% Inhibition,"smMLCK; 0.1µM, Lys2",-14.6%
same,% Inhibition,"smMLCK; 1µM, Lys1",-16.9%
same,% Inhibition,"smMLCK; 1µM, Lys2",3.3%
